Patent US7935706B2, “Nitrogen-containing heterocycle derivatives substituted with cyclic group” (Shionogi & Co., Ltd., priority 2006, dated 2011)
Where two headings read alike, the source gives them in different places.

Legend:
[1] = molecular target: T1, NMDA receptor (NR1 subunit and NR2B subunit) (Mus musculus, UniProt P35438+Q01097); experiment: Measurement of expression of NMDA receptor and Ca ion influx amount (glutamic acid/glycine-induced, HEK293 cell co-expressing NR1 and NR2B subunits, Fluo-3/AM); type: cell-based
T1 construct: expressed in transfected cells; host or cells: HEK293 cells, transient transfection with pcDNA3.1 plasmids
Protocol: Measurement of Expression of NMDA Receptor and Ca Ion Influx Amount
A complementary DNA (cDNA) of a mouse NMDA receptor subunit was transiently introduced into a HEK293 cell and, after 1 day from introduction, change in a glutamic acid/glycine-induced intracelluar Ca amount was measured using a Ca ion reactive fluorescent coloring matter.
The HEK293 cell was cultured, and passaged using a modified Dulbecco's Eagle medium (DMEM, low glucose).
The HEK293 cell (20,000/well) was seeded on a 96-well plate, a NR1 subunit and a NR2B subunit of the NMDA receptor incorporated into the pcDNA3.1 plasmid were transiently introduced into a cell, and the subunits were co-expressed. An introduction amount of a DNA was 0.025 μg in the case of the NR1 subunit, and 0.075 μg in the case of NR2B subunit per well. For the cell after introduction, cell death was inhibited using 50 μM of the NMDA receptor antagonist MK-801.
For adjusting a test compound and washing a cell, Krebs/Ringer/Hepes buffer (KRH, Ca: 5 mM) was used.
After 1 day from introduction, the NMDA receptor antagonist MK-801 was washed out using the KRH buffer, and a Ca ion indication fluorescent coloring matter Fluo-3/AM was made to be taken into the cell. Ca ion influx was induced with 20 μM glutamic acid/2 μM glycine. Change in a fluorescent amount due to Ca ion influx into the cell was measured at excitation of 480 nm using a fluorescent imaging system FDSS 3000.
From a measured value of the test compound, a Ca ion influx inhibition rate (%) was obtained by the following equation, and a dose at which influx is inhibited 50% (IC50) was calculated.
Ca ion influx inhibition rate(%)=100−[(fluorescent amount in the presence of test compound−background fluorescent amount)/(total fluorescent amount−background fluorescent)]×100

[2] = molecular target: T2, NR1/NR2B receptor (Rattus norvegicus, UniProt P35439+Q00960); experiment: Test of binding with NMDA receptor (NR1/NR2B receptor): competition with [3H]-Ifenprodil on rat cerebral cortex membrane specimen
T2 construct: from tissue; host or cells: rat cerebral cortex membranes (male Slc: Wistar rat)
Protocol: Test of Binding with NMDR Receptor (NR1/NR2B Receptor)
Using Ifenprodil which is an antagonist specific for a NR1/NR2B subtype receptor as a ligand, an experiment of competition between a receptor and a test compound was performed.
Using a male Slc: Wistar rat as an animal, a brain was isolated after decapitation, and a cerebral cortex was fractionated. The cerebral cortex was homogenized with a 20-fold amount of an ice-cooled 50 mM Tris/HCl buffer (pH 7.4), and the homogenate was centrifuged at 4° C. and 27,500×g for 10 minutes. The resulting precipitate was suspended in the same buffer, and this was again centrifuged. This operation was repeated for three times, the resulting precipitate was suspended in a buffer, and this was stored at −80° C. Immediately before an experiment, the frozen suspension was thawed at room temperature, this was centrifuged at 4° C. and 27,500×g for 10 minutes, and the resulting precipitate was suspended in a buffer. Further, the suspension was diluted 10-fold with a buffer, and this was used as a membrane specimen in an experiment. In a binding experiment, to 470 μl of the membrane specimen were added […] of each of test compounds having different concentrations, 10 μl of a labeled ligand [^3H]-Ifenprodil and 10 μl GBR-12909, followed by incubation at an ice temperature for 120 minutes. A concentration of [^3H]-Ifenprodil of the labeled ligand was finally 5 nM, and a concentration of GBR-12909 was finally 3 μM. For measuring a total binding amount, DMSO as a solvent was used and, for measuring a non-specific binding amount, 100 μM Ifenprodil was used. GBR-12909 was added in order to block binding of [^3H]-Ifenprodil to non-polyamine-sensitive site. After incubation, a bound formand a free foramwere separated using Whatman GF/C filter (manufactured by Whatman), and the filter was washed with 2.5 ml ice-cooled buffer four times. The filter was immersed in liquid scintillation (Cryasol I, manufactured by Nacalai tesque), and radioactivity (dpm) was measured with a liquid scintillation counter. From a measured value, a binding inhibition rate (%) was obtained by the following equation, and a dose at which binding is inhibited 50% (IC50) was calculated. A formula of GBR-12909 (vanoxerine) is shown below.
Binding inhibition rate(%)=100−[(binding amount in the presence of test compound−non-specific binding amount)/(total binding amount−non-specific binding amount)]×100

[3] = Ca ion influx induced with 20 μM glutamic acid/2 μM glycine, HEK293 cell with mouse NR1/NR2B, read-out: Ca2+ IC50
[4] = same binding test, read-out: IC50 (binding with NR1/NR2B receptor)
[5] = same Ca ion influx test, read-out: IC50 (Ca ion influx inhibition)
[6] = [3H]-Ifenprodil 5 nM, GBR-12909 3 μM, rat cerebral cortex membranes, ice temperature 120 minutes, read-out: NR2B (IC50 μM)

T2 sequence (Q00960 27-1482, other chains not shown): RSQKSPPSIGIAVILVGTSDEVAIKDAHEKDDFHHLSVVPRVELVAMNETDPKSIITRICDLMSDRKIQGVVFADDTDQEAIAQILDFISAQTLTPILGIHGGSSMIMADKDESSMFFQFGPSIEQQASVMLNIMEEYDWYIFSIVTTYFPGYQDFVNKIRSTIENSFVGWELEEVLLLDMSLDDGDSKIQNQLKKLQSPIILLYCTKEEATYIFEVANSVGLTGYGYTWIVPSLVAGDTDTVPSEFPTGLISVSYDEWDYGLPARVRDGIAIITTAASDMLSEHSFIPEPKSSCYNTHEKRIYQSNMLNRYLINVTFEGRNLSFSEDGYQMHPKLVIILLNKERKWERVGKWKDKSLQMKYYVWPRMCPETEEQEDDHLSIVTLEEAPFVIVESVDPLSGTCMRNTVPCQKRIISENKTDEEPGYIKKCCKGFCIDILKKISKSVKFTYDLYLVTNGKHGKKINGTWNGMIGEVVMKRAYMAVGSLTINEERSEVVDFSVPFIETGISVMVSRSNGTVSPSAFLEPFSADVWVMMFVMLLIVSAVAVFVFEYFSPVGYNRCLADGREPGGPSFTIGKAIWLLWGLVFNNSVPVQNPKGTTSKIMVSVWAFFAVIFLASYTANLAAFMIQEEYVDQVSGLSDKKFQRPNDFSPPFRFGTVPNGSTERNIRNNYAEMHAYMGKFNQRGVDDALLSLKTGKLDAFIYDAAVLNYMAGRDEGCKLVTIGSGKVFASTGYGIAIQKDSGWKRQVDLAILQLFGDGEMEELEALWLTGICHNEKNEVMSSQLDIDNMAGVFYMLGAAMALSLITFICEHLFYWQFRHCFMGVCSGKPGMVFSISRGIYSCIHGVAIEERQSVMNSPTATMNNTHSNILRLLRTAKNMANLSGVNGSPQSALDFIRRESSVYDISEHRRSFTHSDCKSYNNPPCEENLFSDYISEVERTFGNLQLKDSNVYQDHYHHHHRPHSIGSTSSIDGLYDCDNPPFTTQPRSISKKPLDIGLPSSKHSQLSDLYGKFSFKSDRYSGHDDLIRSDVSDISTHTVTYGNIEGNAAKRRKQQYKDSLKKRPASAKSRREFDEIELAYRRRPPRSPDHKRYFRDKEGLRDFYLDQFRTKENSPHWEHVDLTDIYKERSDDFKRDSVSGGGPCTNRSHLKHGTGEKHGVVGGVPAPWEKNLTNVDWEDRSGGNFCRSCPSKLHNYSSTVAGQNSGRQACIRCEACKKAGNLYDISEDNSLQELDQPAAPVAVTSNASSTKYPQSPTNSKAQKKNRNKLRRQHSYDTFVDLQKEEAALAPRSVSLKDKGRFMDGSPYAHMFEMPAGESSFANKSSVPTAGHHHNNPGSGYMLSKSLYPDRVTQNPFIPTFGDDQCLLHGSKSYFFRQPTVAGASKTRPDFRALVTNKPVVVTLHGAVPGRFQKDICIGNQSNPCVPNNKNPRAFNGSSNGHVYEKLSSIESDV
T1 sequence (Q01097 27-1482, other chains not shown): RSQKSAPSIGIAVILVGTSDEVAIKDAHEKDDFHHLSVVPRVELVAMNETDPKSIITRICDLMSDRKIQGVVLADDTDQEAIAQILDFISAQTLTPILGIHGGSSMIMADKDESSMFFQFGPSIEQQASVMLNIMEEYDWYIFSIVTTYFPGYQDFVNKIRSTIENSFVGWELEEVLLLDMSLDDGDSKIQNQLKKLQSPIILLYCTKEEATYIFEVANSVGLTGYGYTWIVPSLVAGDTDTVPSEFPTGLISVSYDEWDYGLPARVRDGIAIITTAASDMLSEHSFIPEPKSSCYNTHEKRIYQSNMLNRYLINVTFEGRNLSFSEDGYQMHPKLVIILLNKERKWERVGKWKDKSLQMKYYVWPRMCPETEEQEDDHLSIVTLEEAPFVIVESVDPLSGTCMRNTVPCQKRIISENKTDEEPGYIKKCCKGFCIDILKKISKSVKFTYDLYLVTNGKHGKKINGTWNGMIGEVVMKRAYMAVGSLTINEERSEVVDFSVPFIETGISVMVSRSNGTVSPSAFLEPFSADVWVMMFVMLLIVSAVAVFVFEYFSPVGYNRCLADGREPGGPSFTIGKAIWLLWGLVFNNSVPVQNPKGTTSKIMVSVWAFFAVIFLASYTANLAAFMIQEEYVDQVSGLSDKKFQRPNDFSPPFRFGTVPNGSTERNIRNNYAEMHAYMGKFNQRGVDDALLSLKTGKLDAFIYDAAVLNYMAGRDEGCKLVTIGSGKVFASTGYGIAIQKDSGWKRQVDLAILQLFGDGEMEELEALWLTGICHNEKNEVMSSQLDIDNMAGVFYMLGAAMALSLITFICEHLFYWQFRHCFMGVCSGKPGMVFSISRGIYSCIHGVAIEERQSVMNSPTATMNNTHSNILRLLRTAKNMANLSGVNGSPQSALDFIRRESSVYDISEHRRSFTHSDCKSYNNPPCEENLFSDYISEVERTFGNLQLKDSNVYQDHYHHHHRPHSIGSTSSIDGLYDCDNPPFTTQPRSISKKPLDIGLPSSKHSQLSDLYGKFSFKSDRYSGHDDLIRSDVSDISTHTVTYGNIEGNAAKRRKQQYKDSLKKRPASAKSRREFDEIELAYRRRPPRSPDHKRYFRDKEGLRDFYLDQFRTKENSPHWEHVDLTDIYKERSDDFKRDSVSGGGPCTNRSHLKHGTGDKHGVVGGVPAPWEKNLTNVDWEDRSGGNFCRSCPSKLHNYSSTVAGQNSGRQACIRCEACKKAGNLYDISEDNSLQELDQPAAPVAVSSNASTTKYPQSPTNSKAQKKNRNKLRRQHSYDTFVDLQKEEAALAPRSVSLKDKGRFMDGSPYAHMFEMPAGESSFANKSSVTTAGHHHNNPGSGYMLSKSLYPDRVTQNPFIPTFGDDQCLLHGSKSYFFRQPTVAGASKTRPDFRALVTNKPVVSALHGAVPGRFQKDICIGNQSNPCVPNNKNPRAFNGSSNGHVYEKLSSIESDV

Structure (SMILES) | IC50 [1, 3] | IC50 [2, 4] | IC50 [1, 5] | IC50 [2, 6]
O=C(C=C1CCN(c2cc(C(F)(F)F)ccn2)CC1)Nc1ccc2[nH]c(=O)oc2c1 [Compound I-41] | 0.092 µM | – | – | –
O=C1Cc2cc(NC(=O)C(=O)N3CCN(c4ccc(Cl)c(F)c4)CC3)ccc2N1 [Compound I-200] | – | – | – | 0.081 µM
O=C(NCC1CCN(c2ccc(Cl)c(Cl)c2)CC1)c1ccc2[nH]c(=O)oc2c1 [Compound I-138] | 0.044 µM | – | – | –
O=C(C=C1CCN(c2ccc(C(F)(F)F)cn2)CC1)Nc1ccc2[nH]c(=O)oc2c1 [Compound I-43] | 0.009 µM | – | – | 0.017 µM
O=C(NCC1=CCN(c2ccc(C(F)(F)F)cc2)CC1)c1ccc2[nH]c(=O)sc2c1 [Compound I-78] | 0.031 µM | – | – | –
O=C(NCC1CCN(c2ccc(OC(F)(F)F)cc2)CC1)c1ccc2[nH]c(=O)oc2c1 [Compound I-122] | 0.024 µM | – | – | –
O=C(CC1(O)CCN(c2ccc(C(F)(F)F)cc2)CC1)Nc1ccc2[nH]c(=O)sc2c1 [Compound I-70] | 0.015 µM | – | – | 0.068 µM
O=C(Nc1cnc2[nH]c(=O)oc2c1)C(=O)N1CCN(c2ccc(C(F)(F)F)c(F)c2)CC1 [Compound I-107] | – | ≤ 0.1 µM | ≤ 0.1 µM | –
O=C(CC1(O)CCN(c2ccc(Cl)c(Cl)c2)CC1)Nc1cnc2[nH]c(=O)oc2c1 [Compound I-197] | 0.059 µM | – | – | –
O=C(CCC1CCN(c2ccc(C(F)(F)F)cc2)CC1)Nc1ccc(=O)[nH]c1 [Compound I-21] | 0.037 µM | – | – | 0.096 µM

Next, values leading:

IC50 [1, 3] | IC50 [2, 4] | IC50 [1, 5] | IC50 [2, 6] | Structure (SMILES)
0.037 µM | – | – | – | O=C(C=C1CCN(c2ccc(F)cc2)CC1)Nc1ccc2[nH]c(=O)oc2c1 [Compound I-33]
– | ≤ 0.1 µM | ≤ 0.1 µM | – | O=C(Nc1ccc2[nH]c(=O)oc2c1)C(=O)N1CCN(c2ccc(OC(F)F)cc2)CC1 [Compound I-233]
0.063 µM | – | – | – | O=C(Nc1ccc2[nH]c(=O)oc2c1)C(O)C1CCN(c2ccc(C(F)(F)F)cc2)CC1 (stereo not drawn) [Compound I-25]
– | – | ≤ 0.1 µM | 0.059 µM | C[C@@H]1CN(C(=O)C(=O)Nc2ccc3[nH]c(=O)oc3c2)CCN1c1ccc(Cl)cc1 [Compound I-177]
0.001 µM | – | – | 0.016 µM | O=C(Nc1ccc2[nH]c(=O)oc2c1)C(=O)N1CCN(c2ccc(Cl)c(Cl)c2)CC1 [Compound I-104]
0.051 µM | – | – | – | O=C(Nc1cnc2[nH]c(=O)oc2c1)C(=O)N1CCN(c2ccc(Br)cc2)CC1 [Compound I-94]
0.087 µM | – | – | – | O=C(Nc1ccc2[nH]c(=O)sc2c1)C(=O)N1CCN(c2ccc(F)cc2)CC1 [Compound I-89]
0.014 µM | – | – | 0.054 µM | O=C(CC1(O)CCN(c2ccc(Cl)c(Cl)c2)CC1)Nc1ccc2[nH]c(=O)oc2c1 [Compound I-187]
– | ≤ 0.1 µM | ≤ 0.1 µM | – | C[C@@H]1CN(c2ccc(F)c(Cl)c2)CCN1C(=O)C(=O)Nc1ccc2[nH]c(=O)oc2c1 [Compound I-221]
– | – | – | 0.073 µM | O=C(Nc1ccc2[nH]c(=O)oc2c1)C(=O)N1CCN(c2ccc(C(F)(F)F)nc2)CC1 [Compound I-198]
0.009 µM | – | – | – | O=C(Nc1ccc2[nH]c(=O)oc2c1)C(=O)N1CCN(c2ccc(F)c(Cl)c2)CC1 [Compound I-110]
– | ≤ 0.1 µM | – | – | O=C(CN1CCN(c2ccc(C(F)(F)F)cc2)CC1)Nc1ccc2[nH]c(=O)oc2c1 [Compound I-235]
– | ≤ 0.1 µM | ≤ 0.1 µM | – | O=C(C=C1CCN(c2ccc(OC(F)F)cc2)CC1)Nc1ccc2[nH]c(=O)oc2c1 [Compound I-237]
0.011 µM | ≤ 0.1 µM | – | – | O=C(Nc1ccc2[nH]c(=O)[nH]c2c1)C(=O)N1CCN(c2ccc(Cl)cc2)CC1 [Compound I-84]
0.039 µM | – | – | – | O=C(Nc1cnc2[nH]c(=O)oc2c1)C(=O)N1CCN(c2ccc(C(F)(F)F)cc2)CC1 [Compound I-74]
